Read-outs that look alike come from different tables or passages of the source.
Assays:
[1] = system: spiral ganglion neurons (SGNs); assay: Survival of dissociated spiral ganglion neurons in serum-free culture; format: cell-based, rat; conditions: for survival-promoting effect on SGNs: P5 rat SGNs, 2 days, serum-free medium, neurotrophins 0.1-50 ng/ml
Method: FIG. 1 is a histogram depicting the effects of NT-4/5 on SGN survival. SGNs were prepared from P5 rats, plated and kept for 2 days in serum-free medium in the absence or presence of NT-4/5 at different concentrations. Viable SGNs were identified by labeling with a neurofilament monoclonal antibody (N52), viewed under a Zeiss Axiophot microscope, and counted using a grid ocular reticule covering an area of […]. For each culture, about 10 randomly selected fields were counted. Data were collected from 3 to 5 cultures and normalized as a percentage of the number of viable neurons in the control cultures in each of the experiments. The error bars represent SEM.
FIG. 2 is a histogram depicting the effects of different neurotrophins on SGN survival. SGNs were prepared from P5 rats and maintained for 2 days in serum-free medium without or with different neurotrophins at different concentrations. Quantitation of viable SGNs was made in the same way as in FIG. 1 and the error bars are SEM. […] Difference between NT-3 and NT-4/5 or BDNF was very significant at all doses (P<0.001). No statistical difference was found between NT-4/5 and BDNF except the dose of 0.1 ng/ml (P<0.01).
Identical results (not shown) were also obtained with a different neuronal marker, a monoclonal antibody 3A10 (Furley et al., 1990). SGNs were dissociated from postnatal day 5 (P5) rat cochleae and plated in defined serum-free medium. […] The enzyme was inactivated with a mixture of 0.005% soybean trypsin inhibitor (Sigma) and 0.005% DNase (Worthington) before trituration with 0.05% DNase in Eagle's Basal Medium (“BME”). The dissociated cells were preplated on a 35 mm untreated tissue culture dish for 25 min to enrich the neuronal population. Under these experimental procedures, about 10% of the cell population were spiral ganglion neurons (“SGNs”) as determined by immunocytochemistry with a monoclonal antibody (N52; Boehringer) against neurofilaments (200 kd; Boehringer). […] Cells were plated at a density of 80,000/well. In control cultures about 75% of SGNs died after 2 days, presumably due to a lack of growth factors.

[2] = system: SGNs in cochlear explants; assay: Protective effects in cochlear explant cultures co-treated with ototoxins, SGN peripheral axon count; format: cell-based, rat; conditions: for protective effects on SGNs against ototoxins: growth factor added together with ototoxin, data not shown; for neuroprotection of SGNs against sodium salicylate and gentamicin: 20 ng/ml neurotrophin, sodium salicylate 5 mM or gentamicin 3 mM
Method: (§1) FIGS. 9A and 9B depict quantitation of protective effects of NT-4/5 on SGNs (FIG. 9A) and hair cells (FIG. 9B). […] The same experimental procedures were performed as in FIGS. 6A and 6B. The error bars are SEM and ** indicate that as compared to the cultures containing an ototoxin alone, p<0.001. “Con” indicates control culture.
FIG. 10 depicts quantitation of neuroprotection of different neurotrophins against sodium salicylate (Sal) and gentamicin (Gent). […] Sodium salicylate (5 mM) or gentamicin (3 mM) was added either alone or in combination with one of the neurotrophins (20 ng/ml) to 2-day cultures and the cultures were kept for 2 more days. The same experimental procedures were performed as in FIGS. 6A and 6B. […] The error bars are SEM and ** indicate that as compared to the cultures containing an ototoxin alone, p<0.001.
(§2) The protective effect of neurotrophins against ototoxicity was determined in the organotypic cultures of postnatal cochlear explants described in the Examples above. […] A human recombinant neurotrophin (Genentech, Inc.) or other growth factors, alone or in combination, was added to the culture at the same time the ototoxin was added.
(§3) Two days after treatment with ototoxins or co-treatment with ototoxins and neurotrophins (or other growth factors), the cochlear explant cultures were fixed in 4% paraformaldehyde in 0.1 M phosphate buffer (pH 7.4) for 30 min, washed in PBS, and subjected to double histochemical staining of the cochlear explant cultures. After incubation with the monoclonal antibody N52 against neurofilament protein (200 kd) in 1% Triton X100 containing 3% normal goat serum (“NGS”) for 2 days at 4° C., the explants were incubated with a Texas red-conjugated goat anti-mouse secondary antibody (1:70; Cappel) at room temperature for 40 min. The preparations were then stained with FITC-conjugated phalloidin (0.5 μg/ml; Sigma) for 45 min, washed in PBS and mounted in Fluoromount-G (Southern Biotechnology Associates, Birmingham, Ala.) which contains an anti-fading agent.

[3] = system: hair cells in cochlear explants; assay: Protective effects in cochlear explant cultures co-treated with ototoxins, hair cell count; format: cell-based, rat; conditions: growth factor added together with ototoxin; data not shown
Method: as §1, §2, §3

[4] = cited from earlier work
trkC receptor = trkC receptor (Homo sapiens, UniProt Q16288); conditions: cited from earlier work
[5] = system: spiral ganglion neurons (SGNs); assay: Neurotrophin protection of dissociated SGNs against cisplatin neurotoxicity; format: cell-based, rat; conditions: for protective effects against cisplatin neurotoxicity / protection of SGNs compared with cultures containing cisplatin alone: 10 ng/ml neurotrophin; for protective effects against cisplatin neurotoxicity: cisplatin 1, 2 or 4 μg/ml; for protection of SGNs compared with cultures containing cisplatin alone: 4 μg/ml cisplatin
Text: Quantitation of viable SGNs was done in the same way as in FIG. 1. The error bars stand for SEM. […] While no difference was found between cultures containing NT-4/5 and cultures containing BDNF, the difference between cultures containing NT-3 and cultures containing NT-4/5 or BDNF was statistically very significant (P<0.001).

trkB receptor = trkB receptor (Homo sapiens, UniProt Q16620); conditions: naturally occurring NGF vs BDNF; cited from earlier work
[6] = system: SGNs in cochlear explants
Method: (§4) Cochlear explants were prepared from P3 rats, embedded and cultured in 3-D collagen gels. Ototoxins were added at various concentrations to 2-day cultures for 2 more days. After the preparations were processed for double histochemistry with N52 and phalloidin, they were examined under Zeiss Axiophot epifluorescent microscope. For each culture, SGN peripheral axons and hair cells were counted from 3-4 randomly selected fields in the middle turn of each culture. Data were collected from 6 or more cultures for each of the experimental groups. Two-tailed, unpaired t-test was used for statistical analysis. […] The error bars are SEM and double asterisks (**) indicate significant differences between experimental and control cultures (p<0.001).
(§5) An organotype cochlear explant culture that utilizes a 3-D collagen matrix cultures and maintains its normal, in vivo architecture. Cochleae were dissected from postnatal day 3 (P3) Wistar rats. After spiral ligament and stria vascularis tissues were removed, the remaining cochlear tissue containing the spiral ganglion and organ of Corti was cut into 3 pieces according to the basal, middle and apical turns. The explants were then embedded in a three-dimensional (“3-D”) collagen matrix of a droplet (20 μl) of freshly made collagen gel which was placed on the bottom of a 35 mm Nunc tissue culture dish, modified from what described previously (Gao et al., 1991) as follows. Rat tail collagen (type I, Collaborative Research) was mixed with 10× BME medium and 2% sodium carbonate in a ratio of 10:1:1 and placed on ice just before use. The collagen matrix containing the cochlear explants were incubated at 37° C. for 5-10 min until it gelled. The matrix was then cultured in defined serum-free medium using sufficient medium to cover the explants (2 ml of serum-free medium (BME plus serum-free supplement (Sigma 1-1884), 1% BSA, 2 mM glutamine, and 5 mg/ml glucose; containing no antibiotics). The culture medium was changed every other day thereafter.
(§6) While the neurofilament antibody (Texas red-mediated) labeled the somata and peripheral axons of SGNs, the phalloidin-FITC conjugate stained the stereocillia bundles of hair cells. Three cultures per experimental paradigm were studied in each individual experiment. Three or more separate repetitions of the experiment were conducted to validate the ototoxic effect.
(§7) As the density of the radial peripheral axons of SGNs appeared to be a reliable index of the number of surviving SGNs, the number of the peripheral axons of SGNs from a given length (100 μm) in the middle turn of the cochlea was counted for different experimental groups and plotted in FIG. 6A. Phalloidin-labeled hair cells were also counted in the same way (FIG. 6B).
(§8) Quantitative analysis of the numbers of peripheral axons of SGNs and hair cells in the cochlear explants were performed. The N52 and phalloidin double-labeled cochlear explants were examined under a Zeiss Axiophot epifluorescent microscope. As the density of radial peripheral axons of SGNs reflects the number of surviving SGNs, the number of these axons was counted using a grid ocular reticule covering a distance of 100 μm in the middle turns only. The surviving hair cells were counted in a similar manner. […] For each culture, SGN peripheral axons and hair cells were counted from 3-4 randomly selected fields in the middle turn of each culture.

[7] = system: hair cells in cochlear explants
Method: as §4, §5, §6, §7, §8

Chain of trkC receptor (Q16288 32-839): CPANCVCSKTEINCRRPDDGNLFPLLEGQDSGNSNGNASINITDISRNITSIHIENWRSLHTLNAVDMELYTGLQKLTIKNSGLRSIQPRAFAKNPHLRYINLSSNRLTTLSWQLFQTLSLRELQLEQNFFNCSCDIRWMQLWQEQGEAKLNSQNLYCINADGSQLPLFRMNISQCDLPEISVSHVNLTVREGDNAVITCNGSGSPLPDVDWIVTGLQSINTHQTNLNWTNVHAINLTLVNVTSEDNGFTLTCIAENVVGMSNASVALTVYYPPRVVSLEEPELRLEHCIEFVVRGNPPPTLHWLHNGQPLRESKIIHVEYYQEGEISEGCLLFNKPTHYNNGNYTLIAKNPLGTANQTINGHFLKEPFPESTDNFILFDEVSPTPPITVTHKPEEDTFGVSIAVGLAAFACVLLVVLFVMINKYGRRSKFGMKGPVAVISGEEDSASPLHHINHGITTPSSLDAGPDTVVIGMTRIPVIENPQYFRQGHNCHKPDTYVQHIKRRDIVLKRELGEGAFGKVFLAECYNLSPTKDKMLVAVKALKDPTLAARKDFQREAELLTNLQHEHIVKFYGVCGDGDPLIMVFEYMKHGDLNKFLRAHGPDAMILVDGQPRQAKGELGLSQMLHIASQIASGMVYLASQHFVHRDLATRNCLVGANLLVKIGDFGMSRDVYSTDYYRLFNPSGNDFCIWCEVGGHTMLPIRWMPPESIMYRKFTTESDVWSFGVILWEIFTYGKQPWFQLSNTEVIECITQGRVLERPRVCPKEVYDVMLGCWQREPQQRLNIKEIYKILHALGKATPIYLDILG
Chain of trkB receptor (Q16620 32-822): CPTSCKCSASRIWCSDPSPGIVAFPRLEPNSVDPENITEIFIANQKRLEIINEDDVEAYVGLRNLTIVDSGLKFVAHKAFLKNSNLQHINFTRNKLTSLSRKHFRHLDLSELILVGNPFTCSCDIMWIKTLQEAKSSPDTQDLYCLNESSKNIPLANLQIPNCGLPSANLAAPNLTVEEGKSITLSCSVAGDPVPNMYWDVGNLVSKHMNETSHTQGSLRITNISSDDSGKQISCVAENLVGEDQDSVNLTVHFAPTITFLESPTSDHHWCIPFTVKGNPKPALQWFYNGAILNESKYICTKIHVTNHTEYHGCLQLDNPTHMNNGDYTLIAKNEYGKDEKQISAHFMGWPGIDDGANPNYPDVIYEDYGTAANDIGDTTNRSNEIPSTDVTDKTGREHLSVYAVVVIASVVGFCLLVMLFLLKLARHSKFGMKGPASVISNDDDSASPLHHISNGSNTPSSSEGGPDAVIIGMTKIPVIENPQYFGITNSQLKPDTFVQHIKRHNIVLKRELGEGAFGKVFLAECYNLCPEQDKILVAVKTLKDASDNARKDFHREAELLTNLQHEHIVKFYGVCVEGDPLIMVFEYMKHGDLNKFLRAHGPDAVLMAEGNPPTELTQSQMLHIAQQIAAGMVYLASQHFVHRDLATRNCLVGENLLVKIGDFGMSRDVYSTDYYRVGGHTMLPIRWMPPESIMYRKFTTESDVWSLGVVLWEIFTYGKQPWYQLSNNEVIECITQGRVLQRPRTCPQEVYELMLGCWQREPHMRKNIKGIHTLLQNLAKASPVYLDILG

epidermal growth factor [EGF, growth factor (Collaborative Research)]
survival-promoting effect on SGNs [1]: No survival-promoting effects
protective effects on SGNs against ototoxins [2]: did not show detectable protective effects
protective effects on hair cells against ototoxins [3]: did not show detectable protective effects

[H]/N=C(/N)N[C@H]1[C@H](O)[C@@H](O)[C@H](O[C@@H]2O[C@@H](C)[C@](O)(C=O)[C@H]2O[C@@H]2O[C@@H](CO)[C@H](O)[C@@H](O)[C@@H]2NC)[C@@H](N/C(N)=N\[H])[C@@H]1O [streptomycin]
patients developing measurable hearing loss ([4]; 1 gram per day for greater than 1 week): 4 to 15%
incidence of vestibular impairment ([4]; 1 gram per day): 25%
patients displaying some vestibular impairment ([4]; 2 grams daily for 60 to 120 days): ~75%

platelet-derived growth factor [PDGF]
protective effects on SGNs against ototoxins [2]: did not show detectable protective effects
protective effects on hair cells against ototoxins [3]: did not show detectable protective effects

nerve growth factor [NGF]
survival-promoting effect on SGNs [1]: no detectable effects
KD at trkC relative to NT-3 (fold lower) (trkC receptor; naturally occurring NGF vs NT-3): 500-1000 fold
neuroprotection of SGNs against sodium salicylate and gentamicin [2]: did not show any detectable protection
protective effects against cisplatin neurotoxicity [5]: did not show any protective effects
KD at trkB relative to BDNF (fold lower) (trkB receptor): 500-1000 fold

gentamicin
SGNs remaining intact ([6]; 5 mM): approximately 40%
damage to SGNs ([6]; 0.01 to 0.5 mM): not significantly damaged
damage to SGNs ([6]; 1-5 mM): started to induce SGN degeneration
doses at which damage to SGNs starts ([6]; figure legend FIG. 7A): higher than 1 mM
effect on hair cells ([7]; 0.01 to 0.5 mM): a substantial number of hair cells in the cochlea were killed
effect on hair cells ([7]; 1-5 mM): eliminated virtually all hair cells

R31A: NT-3 with mutation at position R31 to alanine
trkC binding of NT-3 mutant (trkC receptor; compared with NT-3): increased trkC binding

transforming growth factor-α [TGF-α]
protective effects on SGNs against ototoxins [2]: did not show detectable protective effects
protective effects on hair cells against ototoxins [3]: did not show detectable protective effects

basic fibroblast growth factor [βFGF]
survival-promoting effect on SGNs [1]: No survival-promoting effects
protective effects on SGNs against ototoxins [2]: did not show detectable protective effects
protective effects on hair cells against ototoxins [3]: did not show detectable protective effects

transforming growth factor-β1 [TGF-β1]
survival-promoting effect on SGNs [1]: No survival-promoting effects
protective effects on SGNs against ototoxins [2]: did not show detectable protective effects
protective effects on hair cells against ototoxins [3]: did not show detectable protective effects

insulin-like growth factor-1 [IGF-1]
protective effects on SGNs against ototoxins [2]: did not show detectable protective effects
protective effects on hair cells against ototoxins [3]: did not show detectable protective effects

O=C([O-])c1ccccc1O.[Na+] [sodium salicylate]
effect on SGNs and their peripheral axons ([6]; 5 mM, added to 2-day cultures for 2 more days): massive death of SGNs and degeneration of their peripheral axons
dosage which starts to induce significant damage to SGNs ([6]; cochlear explant cultures): 3 mM
SGN degeneration, dose dependence ([6]; various concentrations): dose dependent
effect on hair cells ([7]; 5 mM): all hair cells remained intact
hair cell loss ([7]; 10 mM): no significant hair cell loss

brain-derived neurotrophic factor [BDNF]
survival-promoting effect on SGNs [1]: very significant survival-promoting effects
potency on SGN survival compared with other neurotrophins ([1]; concentrations from 1-50 ng/ml): equal in potency to NT-4/5
neuroprotection of SGNs against sodium salicylate and gentamicin [2]: protective effects on SGNs
protection of SGNs compared with cultures containing cisplatin alone [5]: very significant protecting effects
protective effects against cisplatin neurotoxicity [5]: Equivalent protective effects

neurotrophin-3 [NT-3]
survival-promoting effect on SGNs [1]: significant survival-promoting effect
potency on SGN survival compared with other neurotrophins ([1]; all doses (0.1-50 ng/ml)): less potent than NT-4/5 or BDNF
neuroprotection of SGNs against sodium salicylate and gentamicin [2]: protective effects on SGNs
potency of protection against cisplatin compared with other neurotrophins ([5]; 10 ng/ml): less potent compared to NT-4/5 or BDNF
protection of SGNs compared with cultures containing cisplatin alone [5]: very significant protecting effects
protective effects against cisplatin neurotoxicity [5]: significant protective effects

Reference: US6429191B1, “Treatment of hearing impairments” (Genentech, Inc., priority 1996, dated 2002)
